Measured values: patent US12606528B2, “Methods and materials for inhibiting NF-kB activity” (University of Pittsburgh - Of the Commonwealth System of …, priority 2019, dated 2026)

The molecules below were run on NF-κB (assay: NF-κB assay: THP1-NF-κB-LUC cells, LPS-stimulated secreted luciferase). Settings: THP1-NF-κB-LUC cells, LPS-stimulated; read-out: IC50 (NF-κB assay).
Type: cell-based
Method: FIG. 1 contains line plots showing NF-κB activity of exemplified compounds. 25k THP1-NF-κB-LUC cells were dispensed into 384 well plate (per well). Cells were treated with compounds (2 μM and 0.2 μM) for 2 hours before addition of LPS (10 ng/mL) for 18 hours. Secreted luciferase activity were measured using quant-luc reagents (1 bag of luc reagent dilute to 40 mL, use 10 μL per well). Data were normalized to vehicle control and graphed. Structures of selected exemplified compounds are shown.
FIG. 2 contains heat charts showing NF-κB activity of exemplified compounds as a function of concentration. 25k THP1-NF-κB-LUC cells were dispensed into 384 well plate (per well). Cells were treated with compounds (with serial dilution) for 2 hours before addition of LPS (10 ng/ml) for 18 hours. Secreted luciferase activity were measured using quant-luc reagents (1 bag of luc reagent dilute to 40 mL, use 10 μL per well). Structures of selected exemplified compounds are shown.
25k THP1-NF-κB-LUC cells were dispensed into 384 well plate (per well). Cells were treated with compounds with various concentrations for 2 hours before addition of LPS (10 ng/mL) for 18 hours. Secreted luciferase activity were measured using quant-luc reagents (1 bag of luc reagent dilute to 40 mL, use 10 μL per well). Data were normalized to vehicle control and graphed. Compound IC50 towards inhibiting NF-κB were determined through Prism. Similarly, 10k human PBMCs cells were cultured in 384 well plate (per well). Cells were treated with compounds with various concentrations for 2 hours before addition of LPS (10 ng/ml) for 18 hours, and supernatants were collected and assayed for TNF ELISA. Compound IC50 towards inhibiting TNF release were determined through Prism. • Activity: “+”>10 μM, “++”>1 μM and <10 μM, “+++”>0.1 μM and <1 μM, “++++”<0.1 μM.

Row | SMILES | IC50
1 | O=S(=O)(Cc1ccc(F)cc1)c1oc(-c2ccccc2)nc1S(=O)(=O)c1ccccc1 [BC18523] | > 10 µM
2 | CC(=O)CSc1oc(-c2ccc(C)cc2)nc1S(=O)(=O)c1ccccc1 [BC18525] | > 10 µM
3 | Cc1ccc(S(=O)(=O)c2nc(-c3ccc(F)cc3)oc2SCC(C)C)cc1 [BC18528] | > 10 µM
4 | O=S(=O)(c1ccccc1)c1nc(-c2ccccc2)oc1SCc1ccccc1F [BC18534] | > 10 µM
5 | CSc1oc(-c2ccc(C)cc2)nc1S(=O)(=O)c1ccc(Cl)cc1 [BC18536] | > 10 µM
6 | CCCCCSc1oc(-c2ccc(F)cc2)nc1S(=O)(=O)c1ccccc1 [BC18538] | > 10 µM
7 | NC(=O)CSc1oc(-c2ccc(F)cc2)nc1S(=O)(=O)c1ccc(F)cc1 [BC18539] | > 10 µM
8 | CCCCCSc1oc(-c2ccc(F)cc2)nc1S(=O)(=O)c1ccc(F)cc1 [BC18540] | > 10 µM
9 | CC(C)CSc1oc(-c2ccc(F)cc2)nc1S(=O)(=O)c1ccc(Cl)cc1 [BC18541] | > 10 µM
10 | CCSc1oc(-c2ccc(C)cc2)nc1S(=O)(=O)c1ccc(Cl)cc1 [BC18547] | > 10 µM
11 | CC(C)Sc1oc(-c2ccc(F)cc2)nc1S(=O)(=O)c1ccccc1 [BC18548] | 1 to 10 µM
12 | CSc1oc(-c2ccc(F)cc2)nc1S(=O)(=O)c1ccc(C)cc1 [BC18549] | > 10 µM
13 | CSc1oc(-c2ccc(F)cc2)nc1S(=O)(=O)c1ccc(F)cc1 [BC18550] | > 10 µM
14 | NC(=O)CSc1oc(-c2ccc(F)cc2)nc1S(=O)(=O)c1ccc(Cl)cc1 [BC18551] | > 10 µM
15 | CSc1oc(-c2ccc(F)cc2)nc1S(=O)(=O)c1ccc(Br)cc1 [BC18552] | > 10 µM
16 | CCSc1oc(-c2ccccc2)nc1S(=O)(=O)c1ccc(F)cc1 [BC18556] | 1 to 10 µM
17 | CCCCSc1oc(-c2ccccc2)nc1S(=O)(=O)c1ccc(Cl)cc1 [BC18557] | 1 to 10 µM
18 | CCCSc1oc(-c2ccc(C)cc2)nc1S(=O)(=O)c1ccc(Cl)cc1 [BC18558] | > 10 µM
19 | CCCCSc1oc(-c2ccc(F)cc2)nc1S(=O)(=O)c1ccccc1 [BC18559] | 1 to 10 µM
20 | CCSc1oc(-c2ccc(F)cc2)nc1S(=O)(=O)c1ccc(C)cc1 [BC18560] | 1 to 10 µM

Row | SMILES | IC50
21 | CCSc1oc(-c2ccc(F)cc2)nc1S(=O)(=O)c1ccc(F)cc1 [BC18561] | 1 to 10 µM
22 | CSc1oc(-c2ccc(F)cc2)nc1S(=O)(=O)c1ccc(Cl)cc1 [BC18562] | > 10 µM
23 | CCSc1oc(-c2ccc(F)cc2)nc1S(=O)(=O)c1ccc(Br)cc1 [BC18563] | > 10 µM
24 | CCCSc1oc(-c2ccccc2)nc1S(=O)(=O)c1ccc(F)cc1 [BC18567] | > 10 µM
25 | CCC(C)Sc1oc(-c2ccccc2)nc1S(=O)(=O)c1ccc(Cl)cc1 (stereo not shown) [BC18568] | 1 to 10 µM
26 | Cc1ccc(-c2nc(S(=O)(=O)c3ccc(Cl)cc3)c(SC(C)C)o2)cc1 [BC18569] | 1 to 10 µM
27 | CCC(C)Sc1oc(-c2ccc(F)cc2)nc1S(=O)(=O)c1ccccc1 (stereo not shown) [BC18570] | 1 to 10 µM
28 | CCCSc1oc(-c2ccc(F)cc2)nc1S(=O)(=O)c1ccc(C)cc1 [BC18571] | 1 to 10 µM
29 | CCCSc1oc(-c2ccc(F)cc2)nc1S(=O)(=O)c1ccc(F)cc1 [BC18572] | > 10 µM
30 | CCSc1oc(-c2ccc(F)cc2)nc1S(=O)(=O)c1ccc(Cl)cc1 [BC18573] | 1 to 10 µM
31 | CCCSc1oc(-c2ccc(F)cc2)nc1S(=O)(=O)c1ccc(Br)cc1 [BC18574] | > 10 µM
32 | CC(C)CSc1oc(-c2ccccc2)nc1S(=O)(=O)c1ccc(F)cc1 [BC18578] | 1 to 10 µM
33 | CC(C)CSc1oc(-c2ccccc2)nc1S(=O)(=O)c1ccc(Cl)cc1 [BC18579] | 1 to 10 µM
34 | Cc1ccc(-c2nc(S(=O)(=O)c3ccc(Cl)cc3)c(SCC(C)C)o2)cc1 [BC18580] | > 10 µM
35 | O=S(=O)(c1ccccc1)c1nc(-c2ccc(F)cc2)oc1SCc1ccc(F)cc1 [BC18581] | 1 to 10 µM
36 | Cc1ccc(S(=O)(=O)c2nc(-c3ccc(F)cc3)oc2SC(C)C)cc1 [BC18582] | 1 to 10 µM
37 | CC(C)Sc1oc(-c2ccc(F)cc2)nc1S(=O)(=O)c1ccc(F)cc1 [BC18583] | 1 to 10 µM
38 | CCCSc1oc(-c2ccc(F)cc2)nc1S(=O)(=O)c1ccc(Cl)cc1 [BC18584] | > 10 µM
39 | CC(C)Sc1oc(-c2ccc(F)cc2)nc1S(=O)(=O)c1ccc(Br)cc1 [BC18585] | 1 to 10 µM

The next lines start with the values.

Row | IC50 | SMILES
40 | < 0.1 µM | CCC(C)S(=O)(=O)c1oc(-c2ccc(F)cc2)nc1S(=O)(=O)c1ccc(C)cc1 (stereo not shown) [BC18521]
41 | < 0.1 µM | CS(=O)(=O)c1oc(-c2ccc(F)cc2)nc1S(=O)(=O)c1ccc(Cl)cc1 [BC18522]
42 | 1 to 10 µM | CCS(=O)(=O)c1oc(-c2ccccc2)nc1S(=O)(=O)c1ccc(Cl)cc1 [BC18524]
43 | 1 to 10 µM | CCSc1oc(-c2ccc(F)cc2)nc1S(=O)(=O)c1ccccc1 [BC18526]
44 | 1 to 10 µM | CC(C)CSc1oc(-c2ccc(F)cc2)nc1S(=O)(=O)c1ccccc1 [BC18527]
45 | 1 to 10 µM | Cc1ccc(S(=O)(=O)c2nc(-c3ccc(F)cc3)oc2SCC(C)C)cc1 [BC18529]
46 | 1 to 10 µM | O=C(CSc1oc(-c2ccc(F)cc2)nc1S(=O)(=O)c1ccc(Cl)cc1)c1ccc(F)cc1 [BC18530]
47 | < 0.1 µM | CC(C)S(=O)(=O)c1oc(-c2ccc(F)cc2)nc1S(=O)(=O)c1ccccc1 [BC18531]
48 | < 0.1 µM | CCS(=O)(=O)c1oc(-c2ccc(F)cc2)nc1S(=O)(=O)c1ccc(F)cc1 [BC18532]
49 | < 0.1 µM | CCCS(=O)(=O)c1oc(-c2ccc(F)cc2)nc1S(=O)(=O)c1ccc(Cl)cc1 [BC18533]
50 | 1 to 10 µM | CCCSc1oc(-c2ccccc2)nc1S(=O)(=O)c1ccc(Cl)cc1 [BC18535]
51 | 1 to 10 µM | CCCSc1oc(-c2ccc(F)cc2)nc1S(=O)(=O)c1ccccc1 [BC18537]
52 | < 0.1 µM | CCCCS(=O)(=O)c1oc(-c2ccc(F)cc2)nc1S(=O)(=O)c1ccccc1 [BC18542]
53 | < 0.1 µM | CCCS(=O)(=O)c1oc(-c2ccc(F)cc2)nc1S(=O)(=O)c1ccc(F)cc1 [BC18543]
54 | 0.1 to 1 µM | CCCCS(=O)(=O)c1oc(-c2ccc(F)cc2)nc1S(=O)(=O)c1ccc(Cl)cc1 [BC18544]
55 | 1 to 10 µM | CSc1oc(-c2ccccc2)nc1S(=O)(=O)c1ccc(F)cc1 [BC18545]
56 | 1 to 10 µM | CC(C)Sc1oc(-c2ccccc2)nc1S(=O)(=O)c1ccc(Cl)cc1 [BC18546]
57 | < 0.1 µM | CCC(C)S(=O)(=O)c1oc(-c2ccc(F)cc2)nc1S(=O)(=O)c1ccccc1 (stereo not shown) [BC18553]
58 | < 0.1 µM | CC(C)S(=O)(=O)c1oc(-c2ccc(F)cc2)nc1S(=O)(=O)c1ccc(F)cc1 [BC18554]
59 | < 0.1 µM | CC(C)CS(=O)(=O)c1oc(-c2ccc(F)cc2)nc1S(=O)(=O)c1ccc(Cl)cc1 [BC18555]
60 | < 0.1 µM | O=S(=O)(Cc1ccccc1F)c1oc(-c2ccc(F)cc2)nc1S(=O)(=O)c1ccccc1 [BC18564]
61 | < 0.1 µM | CCCCS(=O)(=O)c1oc(-c2ccc(F)cc2)nc1S(=O)(=O)c1ccc(F)cc1 [BC18565]
62 | < 0.1 µM | CS(=O)(=O)c1oc(-c2ccc(F)cc2)nc1S(=O)(=O)c1ccc(Br)cc1 [BC18566]
63 | < 0.1 µM | CC(C)CS(=O)(=O)c1oc(-c2ccc(F)cc2)nc1S(=O)(=O)c1ccccc1 [BC18575]
64 | < 0.1 µM | CCC(C)S(=O)(=O)c1oc(-c2ccc(F)cc2)nc1S(=O)(=O)c1ccc(F)cc1 (stereo not shown) [BC18576]
65 | < 0.1 µM | CCS(=O)(=O)c1oc(-c2ccc(F)cc2)nc1S(=O)(=O)c1ccc(Br)cc1 [BC18577]
66 | < 0.1 µM | Cc1ccc(S(=O)(=O)c2nc(-c3ccc(F)cc3)oc2S(=O)(=O)C(C)C)cc1 [BC18586]
67 | < 0.1 µM | CC(C)CS(=O)(=O)c1oc(-c2ccc(F)cc2)nc1S(=O)(=O)c1ccc(F)cc1 [BC18587]
68 | < 0.1 µM | CCCS(=O)(=O)c1oc(-c2ccc(F)cc2)nc1S(=O)(=O)c1ccc(Br)cc1 [BC18588]

Same assay, conditions: THP1-NF-κB-LUC cells; compounds 2 hours before LPS (10 ng/mL) for 18 hours; secreted luciferase; read-out: IC50 (NF-κB assay)

Row | IC50 | SMILES
69 | > 10 µM | Cc1cc2c(cc1S(=O)(=O)Nc1ccc(CCC(=O)O)cc1)OCC(=O)N2 [BC181300]
70 | > 10 µM | COc1cc(NS(=O)(=O)c2cc3c(cc2C)NC(=O)CO3)cc(OC)c1 [BC181301]
71 | < 0.1 µM | CCOc1ccc(NS(=O)(=O)c2cc3c(cc2C)NC(=O)CO3)cc1 [BC181302]
72 | < 0.1 µM | CC(=O)c1cccc(NS(=O)(=O)c2cc3c(cc2C)NC(=O)CO3)c1 [BC181303]
73 | > 10 µM | CCCCN(c1ccccc1)S(=O)(=O)c1cc2c(cc1C)NC(=O)CO2 [BC181304]
74 | < 0.1 µM | Cc1ccc(NS(=O)(=O)c2cc3c(cc2C)NC(=O)CO3)cc1Cl [BC181305]
75 | 1 to 10 µM | CC(=O)N1CCOc2cc(S(=O)(=O)Nc3ccc(Br)c(C)c3)c(C)cc21 [BC181306]
76 | > 10 µM | COc1cccc(NS(=O)(=O)c2cc3c(cc2C)N(C)CCO3)c1 [BC181308]
77 | > 10 µM | Cc1ccc(NS(=O)(=O)c2cc3c(cc2C)N(C)CCO3)cc1F [BC181309]
78 | < 0.1 µM | Cc1cc2c(cc1S(=O)(=O)Nc1ccccc1)OCC(=O)N2 [BC181310]

Same assay, conditions: read-out: IC50 (NF-κB assay)

Row | SMILES | IC50
79 | COc1cc(NS(=O)(=O)c2cc3c(cc2C)N(C(C)=O)CCO3)cc(OC)c1 [BC181307] | > 10 µM
